According to patent US20240024273A1, “TOPICAL ADMINISTRATION OF 2-(DIETHYLAMINO)ETHYL 2-(4-ISOBUTYLPHENYL)PROPRIONATE FOR TREATMENT OF DISEASES” (TECHFIELDS PHARMA CO., LTD., priority 2020, published 2024):

System: Mild to Moderate Osteoarthritis of the Knee
Test: Phase 2 study: WOMAC (VAS) pain subscale score, target knee
Format: in vivo, human
Conditions: for WOMAC Pain Subscale Score, Avg.: Avg. of all patients; for WOMAC Pain Subscale Score, Avg. / WOMAC Pain Subscale Score: blinded, High Dose (8 spray/knee, 35 mg/knee) Cohort; for WOMAC Pain Subscale Score, cohort Avg.: low dose cohort 8.75 mg/knee BID, blinded (active + placebo), Day 1 Avg. 59.8; for difference of LS mean (8.75 mg-control), change from baseline in WOMAC pain subscale score / Change from baseline in WOMAC pain subscale score, LS mean (95% ci): Group A, 8.75 mg/knee; for difference of LS mean (8.75 mg-control), change from baseline in WOMAC pain subscale score / difference of LS mean (testing Drug-control), change from baseline in WOMAC pain subscale score: bid vs placebo; for Change from baseline in WOMAC pain subscale score, LS mean (95% ci) / Change from baseline in WOMAC pain subscale score, LS mean: bid; for difference of LS mean (testing Drug-control), change from baseline in WOMAC pain subscale score / Change from baseline in WOMAC pain subscale score, LS mean: Group C, 35 mg/knee; for WOMAC Pain Subscale Score: individual patient
Description: This is a Phase 2, multicenter, randomized, double blind (within dose), placebo controlled, parallel group, proof of concept, and dose range finding study to evaluate the efficacy, safety, and PK of 2-(diethylamino)ethyl 2-(4-isobutylphenyl)propionate hydrochloride spray in adult subjects with clinically symptomatic mild to moderate OA of the knee. For subjects with bilateral knee pain, both knees will be treated, but the most symptomatic knee (i.e., the most painful knee as measured by the Western Ontario and McMaster University Osteoarthritis Index [WOMAC® 3.1] pain subscale score at Screening) will be designated as the target knee for efficacy analyses. For subjects with unilateral knee pain, only the symptomatic (target) knee will be treated.
After a Screening Period of up to 3 weeks and radiographic evaluation of the target knee joint space, a subject will be randomly assigned to 1 of 3 treatment groups in a 1:1:1 ratio with a 2:1 ratio of active:placebo within each treatment group (ie, 2 subjects to active treatment and 1 subject to placebo): • Group A: 8.75 mg 2-(diethylamino)ethyl 2-(4-isobutylphenyl)propionate/knee (2 sprays/knee, one spray to the medial surface and one spray to the lateral surface of the knee), twice daily (BID, approximately every 12 hours; n=50) or placebo (2 sprays/knee), BID (approximately every 12 hours; n=25) for a total of 4 sprays per knee per day; • Group B: 17.5 mg 2-(diethylamino)ethyl 2-(4-isobutylphenyl)propionate/knee (4 sprays/knee, one spray to the medial surface and one spray to the lateral surface of the knee, and one spray to front and one spray to the back of the knee), BID (approximately every 12 hours; n=50) or placebo (4 sprays/knee), BID (approximately every 12 hours; n=25) for a total of 8 sprays per knee per day; • Group C: 35 mg 2-(diethylamino)ethyl 2-(4-isobutylphenyl)propionate/knee (8 sprays/knee, each spray is to be applied to a different non-overlapping area around the knee, and the areas are to be uniformly distributed around the knee), BID (approximately every 12 hours; n=50) or placebo (8 sprays/knee), BID (approximately every 12 hours; n=25) for a total of 16 sprays per knee per day.
The VAS version of the WOMAC will be used for the Primary and Secondary Efficacy Endpoints. Efficacy endpoints will be assessed at Screening and Baseline (Day 1) and at the Week 2, Week 4, Week 8, and Week 12/EOS visits.
The Primary Efficacy Endpoint is the change from Baseline in the WOMAC (VAS) pain subscale score for the target knee at […] of treatment.
3.9.2. Secondary Efficacy Endpoints: • 1. Change from Baseline in the WOMAC (VAS) pain subscale score for the target knee at 2, 4, and 8 weeks of treatment; • 2. Change from Baseline in the WOMAC (VAS) stiffness subscale scores for the target knee and WOMAC (VAS) functional ability subscale scores at 2, 4, 8, and 12 weeks of treatment; • 3. Change from Baseline in the overall WOMAC (VAS) score at 2, 4, 8, and 12 weeks of treatment.
The Primary Efficacy Endpoint is change from Baseline in the WOMAC (VAS) pain subscale score for the target knee at 4 weeks of treatment, and will be analyzed using an analysis of covariance (ANCOVA). Treatment will be included as a fixed class effect and WOMAC Baseline pain subscale score as covariates. The primary comparisons of interest will be the difference between active Group A (8.75 mg 2-(diethylamino)ethyl 2-(4-isobutylphenyl)propionate/knee) and combined placebo, active Group B (17.5 mg 2-(diethylamino)ethyl 2-(4-isobutylphenyl)propionate/knee) and combined placebo, and active Group C (35 mg 2-(diethylamino)ethyl 2-(4-isobutylphenyl)propionate/knee) and combined placebo. […]

Compound: CCN(CC)CCOC(=O)C(C)c1ccc(CC(C)C)cc1 (stereo not drawn) [2-(diethylamino)ethyl 2-(4-isobutylphenyl)propionate]
- reduction of pain WOMAC from baseline to week 12 (5 patients on second batch active drug kits): 81-98%
- WOMAC Pain Subscale Score, Avg. (Day 1): 59.2
- WOMAC Pain Subscale Score, Avg. (Follow-up): 35.2
- WOMAC Pain Subscale Score, Avg. (Week 2): 46.6
- WOMAC Pain Subscale Score, Avg. (Week 4): 41.5
- WOMAC Pain Subscale Score, Avg. (Week 8): 37.0
- WOMAC Pain Subscale Score, Avg. (Week 12): 33.8
- WOMAC Pain Subscale Score, cohort Avg. (Follow-up): 39.7
- difference of LS mean (8.75 mg-control), change from baseline in WOMAC pain subscale score (Week 2): 6.7 mm
- difference of LS mean (8.75 mg-control), change from baseline in WOMAC pain subscale score (Week 4): 10.5 mm
- difference of LS mean (8.75 mg-control), change from baseline in WOMAC pain subscale score (Week 8): 7.9 mm
- difference of LS mean (8.75 mg-control), change from baseline in WOMAC pain subscale score (Week 12/EOS): 8.6 mm
- Change from baseline in WOMAC pain subscale score, LS mean (95% ci) (Week 2): −7.5 (−13.3, −1.7) mm
- Change from baseline in WOMAC pain subscale score, LS mean (95% ci) (Week 4): −10.6 (−17.1, −4.1) mm
- Change from baseline in WOMAC pain subscale score, LS mean (95% ci) (Week 8): −15.7 (−22.5, −8.8) mm
- Change from baseline in WOMAC pain subscale score, LS mean (95% ci) (Week 12/EOS): −16.1 (−23.6, −8.6) mm
- difference of LS mean (testing Drug-control), change from baseline in WOMAC pain subscale score (Week 2): −11.5 mm
- difference of LS mean (testing Drug-control), change from baseline in WOMAC pain subscale score (Week 4): −12.8 mm
- difference of LS mean (testing Drug-control), change from baseline in WOMAC pain subscale score (Week 8): −6.0 mm
- difference of LS mean (testing Drug-control), change from baseline in WOMAC pain subscale score (Week 12/EOS): −4.1 mm
- Change from baseline in WOMAC pain subscale score, LS mean (Week 2): −15.6 mm
- Change from baseline in WOMAC pain subscale score, LS mean (Week 4): −21.2 mm
- Change from baseline in WOMAC pain subscale score, LS mean (Week 8): −24.0 mm
- Change from baseline in WOMAC pain subscale score, LS mean (Week 12/EOS): −26.9 mm
- WOMAC Pain Subscale, WOMAC VAS Score (Patient 1056, second batch active drug kits, Day 1): 51.8 mm
- WOMAC Pain Subscale, WOMAC VAS Score (Patient 1056, second batch active drug kits, Follow Up): 10.0 mm
- WOMAC Pain Subscale, WOMAC VAS Score (Patient 1056, second batch active drug kits, Week 2): 31.0 mm
- WOMAC Pain Subscale, WOMAC VAS Score (Patient 1056, second batch active drug kits, Week 4): 22.6 mm
- WOMAC Pain Subscale, WOMAC VAS Score (Patient 1056, second batch active drug kits, Week 8): 28.0 mm
- WOMAC Pain Subscale, WOMAC VAS Score (Patient 1056, second batch active drug kits, Week 12): 12.0 mm
- WOMAC Pain Subscale, WOMAC VAS Score (Patient 1064, second batch active drug kits, Day 1): 32.6 mm
- WOMAC Pain Subscale, WOMAC VAS Score (Patient 1064, second batch active drug kits, Follow Up): 1.6 mm
- WOMAC Pain Subscale, WOMAC VAS Score (Patient 1064, second batch active drug kits, Week 2): 21.6 mm
- WOMAC Pain Subscale, WOMAC VAS Score (Patient 1064, second batch active drug kits, Week 4): 1.8 mm
- WOMAC Pain Subscale, WOMAC VAS Score (Patient 1064, second batch active drug kits, Week 8): 1.0 mm
- WOMAC Pain Subscale, WOMAC VAS Score (Patient 1064, second batch active drug kits, Week 12): 0 mm
- WOMAC Pain Subscale, WOMAC VAS Score (Patient 1535, second batch active drug kits, Day 1): 40.4 mm
- WOMAC Pain Subscale, WOMAC VAS Score (Patient 1535, second batch active drug kits, Follow Up): 0.0 mm
- WOMAC Pain Subscale, WOMAC VAS Score (Patient 1535, second batch active drug kits, Week 2): 2.8 mm
- WOMAC Pain Subscale, WOMAC VAS Score (Patient 1535, second batch active drug kits, Week 4): 2.6 mm
- WOMAC Pain Subscale, WOMAC VAS Score (Patient 1535, second batch active drug kits, Week 8): 4.0 mm
- WOMAC Pain Subscale, WOMAC VAS Score (Patient 1535, second batch active drug kits, Week 12): 0.6 mm
- WOMAC Pain Subscale, WOMAC VAS Score (Patient 1539, second batch active drug kits, Day 1): 63.0 mm
- WOMAC Pain Subscale, WOMAC VAS Score (Patient 1539, second batch active drug kits, Follow Up): 5.0 mm
- WOMAC Pain Subscale, WOMAC VAS Score (Patient 1539, second batch active drug kits, Week 2): 47.6 mm
- WOMAC Pain Subscale, WOMAC VAS Score (Patient 1539, second batch active drug kits, Week 4): 48.2 mm
- WOMAC Pain Subscale, WOMAC VAS Score (Patient 1539, second batch active drug kits, Week 8): 1.8 mm
- WOMAC Pain Subscale, WOMAC VAS Score (Patient 1539, second batch active drug kits, Week 12): 9.4 mm
- WOMAC Pain Subscale, WOMAC VAS Score (Patient 9032, second batch active drug kits, Day 1): 16.6 mm
- WOMAC Pain Subscale, WOMAC VAS Score (Patient 9032, second batch active drug kits, Follow Up): 3.0 mm
- WOMAC Pain Subscale, WOMAC VAS Score (Patient 9032, second batch active drug kits, Week 2): 11.2 mm
- WOMAC Pain Subscale, WOMAC VAS Score (Patient 9032, second batch active drug kits, Week 4): 6.2 mm
- WOMAC Pain Subscale, WOMAC VAS Score (Patient 9032, second batch active drug kits, Week 8): 4.4 mm
- WOMAC Pain Subscale, WOMAC VAS Score (Patient 9032, second batch active drug kits, Week 12): 3.2 mm
- WOMAC Pain Subscale Score, cohort Avg. (Week 2): 48.6
- WOMAC Pain Subscale Score, cohort Avg. (Week 4): 42.8
- WOMAC Pain Subscale Score, cohort Avg. (Week 8): 38.4
- WOMAC Pain Subscale Score, cohort Avg. (Week 12): 38.2
- WOMAC Pain Subscale Score (Day 1): 59.4
- WOMAC Pain Subscale Score (Follow-up): 67.0
